Key:
CXCR4 gene expression = CXCR4 gene expression after incubation with dmPGE2; format: cell-based; details: 10 μM dmPGE2 for two hours at 37° C.
[1] = tested on: CXCR4 surface protein within Lin-CD45lowCD34+7AAD- cells; experiment: CXCR4 surface protein on cord blood mononuclear cells after dmPGE2 treatment; format: cell-based; details: 10 μM dmPGE2 two hours at 37° C., then additional one hour incubation without dmPGE2
Experimental: Cord blood mononuclear cells (All Cells, Emeryville, Calif.) were thawed in a 37° C. water bath and immediately diluted with 10 mL of pre-warmed IMDM with 10% fetal calf serum and 5 uL of DNase (Life Technologies, Grand Island, N.Y.). The cells were split three ways and centrifuged at 300×g for 10 minutes. The cells were resuspended in STEMSPAN-ACF (Media 1), STEMSPAN-ACF with 5% Dextran-40 (Media 2) or STEMSPAN-ACF with 10% Dextran-40 (Media 3). A subset, 1×10^6 cells, from Media 1 were kept at 4° C. and immediately stained with Lineage Mix-FITC, CXCR4-PE, CD34-APC, and CD45-V450 antibodies from BD Biosciences. All 3 media conditions were split into a vehicle-treated cohort and a 10 μM dmPGE2-treated cohort and incubated at 37° C. for 2 hours. The cells were washed with the same media and incubated at 37° C. for an additional 1 hour. Each cohort was stained with the same antibodies as indicated above. Levels of CXCR4 surface protein within the Lin-CD45^lowCD34+7AAD-cells were analyzed.

CCCCC(C)(C)[C@H](O)/C=C/[C@H]1[C@H](O)CC(=O)[C@@H]1C/C=C\CCCC(=O)O [dmPGE2, 16,16-dimethyl PGE2]
CXCR4 gene expression (CXCR4 gene expression): increased
CXCR4 surface protein [1]: increased

Source: US11135244B2, “Stem cell culture media and methods of enhancing cell survival” (Fate Therapeutics, Inc., priority 2013, dated 2021)
